Consider four compounds from US7511137B2, “Stereoisomers and stereoisomeric mixtures of 1-(2,4-pyrimidinediamino)-2-cyclopentanecarboxamide synthetic intermediates” (Rigel Pharmaceuticals, Inc., priority 2003, dated 2009).

What all share (type): cell-based
The test system of assay [1] is a variety of tumor cell lines. The assay is described as follows: conventional antiproliferative assays, result in words. The procedure: Accordingly, stereoisomers of related 1-(2,4-pyrimidinediamino)-2-cyclopentanecarboxamides are expected to have analogous activity in antiproliferative assays.
(§1) The four stereoisomers isomers of (1S, 2R)-1-(2,4-pyrimidinediamino)-2-cyclopentanecarboxamide (1), (2), (3) and (4) were prepared as described in Examples 1-4. The racemic mixture of the cis compound was prepared as described herein. The IC50 values of various compounds against different tumor cell lines were determined using standard in vitro antiproliferation assays. The tumor cell lines tested were as follows: A549 (lung); H1299 (lung); DU145 (prostate); HCT116 (colon/p53wt); and mirapaca.

In assay [2] the test system is HCT116 (colon/p53wt). The assay is described as follows: in vitro antiproliferation assay, HCT116. To be noted: Homo sapiens, HCT-116; HCT116 colon/p53wt tumor cell line. How it is done:
as §1

The test system of assay [3] is H1299 (lung). Kind of assay: in vitro antiproliferation assay, H1299. Conditions: Homo sapiens, NCI-H1299; H1299 lung tumor cell line. The procedure:
as §1

The subject of assay [4] is A549 (lung). Kind of assay: in vitro antiproliferation assay, A549. To be noted: Homo sapiens; A549 lung tumor cell line. How it is done:
as §1

The subject of assay [5] is DU145 (prostate). The assay is described as follows: in vitro antiproliferation assay, DU145. Conditions: Homo sapiens, DU-145; DU145 prostate tumor cell line. How it is done:
as §1

Molecules are shown by their SMILES. “Also recorded” adds a separate entry of the source. Read-outs that look alike come from different tables or passages of the source.

In general, IC50 refers to the concentration that inhibits the measured activity by half. Higher therefore signals weaker potency in that assay.

On to `Cc1cc(Nc2ncc(F)c(N[C@@H]3CCC[C@@H]3C(N)=O)n2)ccc1N1CCN(C)CC1` [Compound 1, (1S, 2R)-1-(2,4-pyrimidinediamino)-2-cyclopentanecarboxamide], for which the “antiproliferative activity (in words)” value in assay [1] is given as “antiproliferative activity; also recorded: active”. Moreover, in assay [2], the IC50 was under 0.1 µM.
Turning to `Cc1cc(Nc2ncc(F)c(N[C@H]3CCC[C@H]3C(N)=O)n2)ccc1N1CCN(C)CC1` [Compound 2, (1R, 2S)-1-(2,4-pyrimidinediamino)-2-cyclopentanecarboxamide], in assay [1], the “antiproliferative activity (in words)” value is “antiproliferative activity; also recorded: active”. For the same compound, the IC50 was under 10 µM in assay [3] and under 5 µM in assay [4].
Take `Cc1cc(Nc2ncc(F)c(N[C@H]3CCC[C@@H]3C(N)=O)n2)ccc1N1CCN(C)CC1` [Compound 3, (1S, 2S)-1-(2,4-pyrimidinediamino)-2-cyclopentanecarboxamide]: the “antiproliferative activity (in words)” value in assay [1] was “antiproliferative activity”; in assay [1] (listed as trans (1S, 2S)), “inactive”. For the same compound, the IC50 in assay [3] and in assay [4] was over 20 µM in each case.
In the case of `Cc1cc(Nc2ncc(F)c(N[C@@H]3CCC[C@H]3C(N)=O)n2)ccc1N1CCN(C)CC1` [Compound 4, (1R, 2R)-1-(2,4-pyrimidinediamino)-2-cyclopentanecarboxamide], in assay [1], the “antiproliferative activity (in words)” value is “active”. Moreover, the IC50 in assay [3], in assay [4], in assay [5] and in assay [2] was under 5 µM in each case.
